# Test results as given in US20170027171A1, “METHOD FOR CONTROLLING PLANT DISEASES” (Nihon Nohyaku Co., Ltd., priority 2014, published 2017).
# Assays:
# Type in all cases: in vivo
# [1] = tested on: Pseudocercosporella herpotrichoides; assay: Test for wheat eyespot, potted wheat, foliar spray before inoculation; settings: wheat in pots, percentage of stems with lesions three weeks after inoculation
# Description: Test for Wheat Eyespot (Pseudocercosporella herpotrichoides)
# The formulation produced in Formulation Example 1 was adjusted to predetermined concentrations and these prepared agrochemical liquids were applied to wheat plants in pots at a predetermined rate with a spray gun. After air-drying, the wheat pots were spray-inoculated with a spore suspension of wheat eyespot pathogen Pseudocercosporella herpotrichoides (4.2×10^6 spores/mL). After that, the wheat pots were kept in a greenhouse, in which the conditions favored the development of the disease. Three weeks after the inoculation, the percentage of stems with lesions was determined for the evaluation of the control effect.
# [2] = tested on: Septoria tritici, KUK-1-21 Strain; assay: Test for wheat leaf blotch, potted wheat, foliar spray before inoculation
# Description: Test for Wheat Leaf Blotch (Septoria tritici, KUK-1-21 Strain):
# The formulation produced in Formulation Example 1 was adjusted to predetermined concentrations and these prepared agrochemical liquids were applied to wheat plants in pots at a rate equivalent to 1000 L/ha with a spray gun. After the agrochemical treatment, the wheat pots were kept outdoors for 1 day or 7 days, and then spray-inoculated with wheat leaf blotch pathogen Septoria tritici (1×10^6 spores/mL). After that, the wheat pots were kept in a greenhouse, in which the conditions favored the development of the disease. Three weeks after the inoculation, the lesion area index (0-10) was determined for the evaluation of the control effect.
# [3] = tested on: Septoria nodorum; assay: Test for wheat glume blotch, potted wheat, foliar spray before inoculation; settings: wheat in pots, 1000 L/ha spray, number of lesions per leaf ten days after inoculation
# Description: Test for Wheat Glume Blotch (Septoria nodorum)
# The formulation produced in Formulation Example 1 was adjusted to predetermined concentrations and these prepared agrochemical liquids were applied to wheat plants in pots at a rate equivalent to 1000 L/ha with a spray gun. After the agrochemical treatment, the wheat pots were kept outdoors for 1 day or 7 days, and then spray-inoculated with wheat leaf blotch pathogen Septoria nodorum (2.4×10^6 spores/mL). After that, the wheat pots were kept in a greenhouse, in which the conditions favored the development of the disease.
# Ten days after the inoculation, the number of lesions per leaf was counted for the evaluation of the control effect.
structure (smiles),measurement,setting,value
O=C1C(Cl)=C(Cl)C(=O)N1c1ccc(F)cc1 [Fluoroimide],"Control rate, Inoculated after treatment and air-drying",[1]; 125 ppm,56
same,"Control rate, Inoculated after treatment and air-drying",[1]; 250 ppm,80
same,"Control rate, Inoculated after treatment and air-drying",[1]; 500 ppm,95
same,"Control rate, Inoculated at 1 day post-treatment","[2]; 62.5 ppm, wheat in pots, 1000 L/ha spray, lesion area index three weeks after inoculation",62
same,"Control rate, Inoculated at 1 day post-treatment","[2]; 125 ppm, wheat in pots, 1000 L/ha spray, lesion area index three weeks after inoculation",84
same,"Control rate, Inoculated at 1 day post-treatment","[2]; 250 ppm, wheat in pots, 1000 L/ha spray, lesion area index three weeks after inoculation",95
same,"Control rate, Inoculated at 7 days post-treatment","[2]; 500 ppm, wheat in pots, 1000 L/ha spray, lesion area index three weeks after inoculation",65
same,Effect for controlling leaf blotch (in words),[2]; summary of the results,highly effective
same,"Control rate, Inoculated at 1 day post-treatment",[3]; 62.5 ppm,63
same,"Control rate, Inoculated at 1 day post-treatment",[3]; 125 ppm,90
same,"Control rate, Inoculated at 1 day post-treatment",[3]; 250 ppm,94
same,"Control rate, Inoculated at 1 day post-treatment",[3]; 500 ppm,96
same,"Control rate, Inoculated at 7 days post-treatment",[3]; 500 ppm,85
